“And” between values parts separate entries of the source, which are not always exact repeats. Identical values can stand only once. Inconclusive results and toxic doses are left out. No stated cut-off is given here; in the data, active means T/C of 150% or more; inactive means T/C below 125%.
Tested on: L1210 leukemia ip in BDF1 mice, survival T/C
Test: NCI In Vivo Anticancer Drug Screen. Data for tumor model L1210 Leukemia (intraperitoneal) in B6D2F1 (BDF1) mice
Details: endpoint: mean survival time, higher = longer survival
In short: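 Transplantable tumor model; survival measured in treated vs vehicle control mice. Value = treated/control.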

[1] = dose: 100.0 mg/kg/injection, schedule: Q01DX001 (ip), vehicle: Klucel (hydroxypropylcellulose) (HPC)
[2] = dose: 200.0 mg/kg/injection, schedule: Q01DX001 (ip), vehicle: Klucel (hydroxypropylcellulose) (HPC)
[3] = dose: 400.0 mg/kg/injection, schedule: Q01DX001 (ip), vehicle: Klucel (hydroxypropylcellulose) (HPC)
[4] = dose: 100.0 mg/kg/injection, schedule: Q01DX001 (ip), vehicle: saline with Tween-80
[5] = dose: 100.0 mg/kg/injection, schedule: Q01DX001 (ip), vehicle: carboxymethylcellulose (CMC)
[6] = dose: 100.0 mg/kg/injection, schedule: Q04DX003 (ip), vehicle: saline with Tween-80
[7] = dose: 100.0 mg/kg/injection, schedule: Q01DX009 (ip), vehicle: Klucel (hydroxypropylcellulose) (HPC)
[8] = dose: 200.0 mg/kg/injection, schedule: Q01DX009 (ip), vehicle: Klucel (hydroxypropylcellulose) (HPC)
[9] = dose: 12.5 mg/kg/injection, schedule: Q01DX009 (ip), vehicle: saline with Tween-80
[10] = dose: 25.0 mg/kg/injection, schedule: Q01DX009 (ip), vehicle: saline with Tween-80
[11] = dose: 50.0 mg/kg/injection, schedule: Q01DX009 (ip), vehicle: saline with Tween-80
[12] = dose: 100.0 mg/kg/injection, schedule: Q01DX001 (ip), vehicle: saline
[13] = dose: 200.0 mg/kg/injection, schedule: Q01DX001 (ip), vehicle: saline

Measured: T/C

Cc1cccc2sc(=S)[nH]c12
inactive: dose: 37.5 mg/kg/injection, schedule: Q04DX003 (ip), vehicle: Klucel (hydroxypropylcellulose) (HPC) 107 % of control | dose: 75.0 mg/kg/injection, schedule: Q01DX009 (ip), vehicle: Klucel (hydroxypropylcellulose) (HPC) 92 % of control | dose: 75.0 mg/kg/injection, schedule: Q04DX003 (ip), vehicle: Klucel (hydroxypropylcellulose) (HPC) 101 % of control | dose: 150.0 mg/kg/injection, schedule: Q01DX009 (ip), vehicle: Klucel (hydroxypropylcellulose) (HPC) 92 % of control | dose: 150.0 mg/kg/injection, schedule: Q04DX003 (ip), vehicle: Klucel (hydroxypropylcellulose) (HPC) 93 % of control | dose: 300.0 mg/kg/injection, schedule: Q01DX009 (ip), vehicle: Klucel (hydroxypropylcellulose) (HPC) 93 % of control | dose: 300.0 mg/kg/injection, schedule: Q04DX003 (ip), vehicle: Klucel (hydroxypropylcellulose) (HPC) 95 % of control

O=C(OC1CC=CCC1)c1ccc([N+](=O)[O-])cc1 (configuration not stated)
inactive: [1] 86 % of control | [2] 98 % of control | [3] 96 % of control

O=C1/C(=C\c2ccccc2)Oc2cc(O)c(O)cc21
inactive: [4] 98 % of control

O=C1C=CC(=O)c2cc3ccccc3cc21
inactive: [5] 102 % of control

CC(C)C(CN)(CCCN1CCCCC1)c1cccc2ccccc12 (configuration not stated)
inactive: [6] 101 % of control

CCOP(=O)(NC12CC3CC(CC(C3)C1)C2)OCC
inactive: [7] 97 % of control | dose: 100.0 mg/kg/injection, schedule: Q04DX003 (ip), vehicle: Klucel (hydroxypropylcellulose) (HPC) 93 % of control | [8] 94 % of control | dose: 200.0 mg/kg/injection, schedule: Q04DX003 (ip), vehicle: Klucel (hydroxypropylcellulose) (HPC) 98 % of control | dose: 400.0 mg/kg/injection, schedule: Q04DX003 (ip), vehicle: Klucel (hydroxypropylcellulose) (HPC) 90 % of control

CCCNS(=O)(=O)c1cccc(C(N)=S)c1
inactive: [1] 101 % of control | [2] 100 % of control | [3] 103 % of control

CC1(C)N=C(N)N=C(N)N1c1ccc(Cl)c(C(F)(F)F)c1
inactive: dose: 8.33 mg/kg/injection, schedule: Q01DX009 (ip), vehicle: saline with Tween-80 115 % of control | dose: 8.8 mg/kg/injection, schedule: Q04DX003 (ip), vehicle: saline with Tween-80 107 % of control | [9] 118 % of control | dose: 13.3 mg/kg/injection, schedule: Q04DX003 (ip), vehicle: saline with Tween-80 104 % of control | dose: 20.0 mg/kg/injection, schedule: Q04DX003 (ip), vehicle: saline with Tween-80 101 % of control | [10] 116 % of control | dose: 30.0 mg/kg/injection, schedule: Q04DX003 (ip), vehicle: saline with Tween-80 106 % of control | dose: 33.0 mg/kg/injection, schedule: Q01DX009 (ip), vehicle: saline with Tween-80 118 % of control | dose: 45.0 mg/kg/injection, schedule: Q04DX003 (ip), vehicle: saline with Tween-80 115 % of control | [11] 98 % of control | [6] 108 % of control

O=NN(CCCl)C(=O)c1cc(Cl)cc(Cl)c1
inactive: [9] 115 % of control | [10] 117 % of control | [11] 111 % of control and 91 % of control | dose: 100.0 mg/kg/injection, schedule: Q01DX009 (ip), vehicle: saline with Tween-80 93 % of control | dose: 200.0 mg/kg/injection, schedule: Q01DX009 (ip), vehicle: saline with Tween-80 99 % of control

O=[N+]([O-])c1ccc(O)c(/C=N\NC(=S)Nc2ccc3cn[nH]c3c2)c1
inactive: dose: 50.0 mg/kg/injection, schedule: Q01DX001 (ip), vehicle: carboxymethylcellulose (CMC) 97 % of control | [5] 103 % of control | dose: 200.0 mg/kg/injection, schedule: Q01DX001 (ip), vehicle: carboxymethylcellulose (CMC) 93 % of control | dose: 400.0 mg/kg/injection, schedule: Q01DX001 (ip), vehicle: carboxymethylcellulose (CMC) 97 % of control

C[Se](=O)O.[Pb]
inactive: dose: 3.13 mg/kg/injection, schedule: Q01DX001 (ip), vehicle: saline with Tween-80 98 % of control | dose: 6.25 mg/kg/injection, schedule: Q01DX001 (ip), vehicle: saline with Tween-80 98 % of control | dose: 12.5 mg/kg/injection, schedule: Q01DX001 (ip), vehicle: saline with Tween-80 88 % of control

CCCCCCN(CCCCCC)CCCCCC
inactive: dose: 8.0 mg/kg/injection, schedule: Q01DX015 (ip), vehicle: carboxymethylcellulose (CMC) 97 % of control | dose: 16.0 mg/kg/injection, schedule: Q01DX015 (ip), vehicle: carboxymethylcellulose (CMC) 100 % of control | dose: 32.0 mg/kg/injection, schedule: Q01DX015 (ip), vehicle: carboxymethylcellulose (CMC) 102 % of control | dose: 64.0 mg/kg/injection, schedule: Q01DX015 (ip), vehicle: carboxymethylcellulose (CMC) 96 % of control | [12] 97 % of control | dose: 128.0 mg/kg/injection, schedule: Q01DX015 (ip), vehicle: carboxymethylcellulose (CMC) 97 % of control | [13] 106 % of control | dose: 400.0 mg/kg/injection, schedule: Q01DX001 (ip), vehicle: saline 100 % of control

C[N+](C)(C)CCC(=O)c1ccccc1
inactive: dose: 12.5 mg/kg/injection, schedule: Q04DX003 (ip), vehicle: saline 97 % of control | dose: 25.0 mg/kg/injection, schedule: Q04DX003 (ip), vehicle: saline 100 % of control | dose: 50.0 mg/kg/injection, schedule: Q04DX003 (ip), vehicle: saline 94 % of control | dose: 75.0 mg/kg/injection, schedule: Q01DX001 (ip), vehicle: saline 102 % of control

CSc1ccc(OC(=O)Nc2cccc3ccccc23)cc1
inactive: dose: 100.0 mg/kg/injection, schedule: Q04DX002 (ip), vehicle: Klucel (hydroxypropylcellulose) (HPC) 96 % of control | dose: 200.0 mg/kg/injection, schedule: Q04DX002 (ip), vehicle: Klucel (hydroxypropylcellulose) (HPC) 104 % of control | dose: 400.0 mg/kg/injection, schedule: Q04DX002 (ip), vehicle: Klucel (hydroxypropylcellulose) (HPC) 101 % of control

CCCCNC(C)(C)C(SSSC(C)=O)c1ccco1 (configuration not stated)
inactive: [9] 100 % of control | dose: 12.5 mg/kg/injection, schedule: Q04DX003 (ip), vehicle: saline with Tween-80 102 % of control | [10] 104 % of control | dose: 25.0 mg/kg/injection, schedule: Q04DX003 (ip), vehicle: saline with Tween-80 106 % of control | [11] 108 % of control | dose: 50.0 mg/kg/injection, schedule: Q04DX003 (ip), vehicle: saline with Tween-80 96 % of control | [6] 102 % of control

CSC(=N)N
inactive: [12] 105 % of control | dose: 100.0 mg/kg/injection, schedule: Q01DX009 (ip), vehicle: saline 99 % of control | dose: 100.0 mg/kg/injection, schedule: Q04DX002 (ip), vehicle: saline 100 % of control | dose: 100.0 mg/kg/injection, schedule: Q04DX003 (ip), vehicle: saline 101 % of control | [13] 96 % of control | dose: 200.0 mg/kg/injection, schedule: Q01DX009 (ip), vehicle: saline 91 % of control | dose: 200.0 mg/kg/injection, schedule: Q04DX002 (ip), vehicle: saline 100 % of control | dose: 200.0 mg/kg/injection, schedule: Q04DX003 (ip), vehicle: saline 97 % of control | dose: 400.0 mg/kg/injection, schedule: Q01DX009 (ip), vehicle: saline 89 % of control | dose: 400.0 mg/kg/injection, schedule: Q04DX003 (ip), vehicle: saline 97 % of control

CC(=O)NS(=O)(=O)c1ccc(N=Cc2ccccc2O)cc1
inactive: [7] 101 % of control | [8] 94 % of control | dose: 400.0 mg/kg/injection, schedule: Q01DX009 (ip), vehicle: Klucel (hydroxypropylcellulose) (HPC) 100 % of control

COC(=O)c1cc(OC)c(OC)c(OC)c1
inactive: [4] 100 % of control | dose: 200.0 mg/kg/injection, schedule: Q01DX001 (ip), vehicle: saline with Tween-80 98 % of control | dose: 400.0 mg/kg/injection, schedule: Q01DX001 (ip), vehicle: saline with Tween-80 96 % of control

Source: PubChem BioAssay AID248 (DTP/NCI, 2004)
